Experimental data: patent US7049303B2, “Inhibition of viruses” (Medical Research Council, priority 2001, dated 2006)
Like-named read-outs stand apart in the source and are kept apart here.

Legend:
[1] = test system: human T-lymphocytes (CEM/O cells); assay: Toxicity: inhibition of proliferation of human T-lymphocytes (CEM/O cells); format: cell-based; settings: read-out: IC50 (50% inhibitory concentration), proliferation of CEM/O cells
Protocol: Following synthesis, the various compounds were tested in vitro for toxicity, by measuring the IC50 (i.e. the concentration which caused 50% inhibition) in respect of the inhibitory effects of the compounds on the proliferation of human T-lymphocytes (CEM/O cells).

HIV-1(IIIB) = assay: Serial passage of HIV-1 infected CEM cell cultures with sub-toxic drug, cytopathic effect (giant cell formation); format: cell-based; settings: for percentage of cytopathic effect (giant cell formation), passage number 1: passage 1; for percentage of cytopathic effect (giant cell formation), passage number 1 / percentage of cytopathic effect (giant cell formation), passage number 2 / percentage of cytopathic effect (giant cell formation), passage number 3 / percentage of cytopathic effect (giant cell formation), passage number 4 / percentage of cytopathic effect (giant cell formation), passage number 5 / percentage of cytopathic effect (giant cell formation), passage number 6 / percentage of cytopathic effect (giant cell formation), passage number 7: subcultivation every 5 days; for percentage of cytopathic effect (giant cell formation), passage number 2: passage 2; for percentage of cytopathic effect (giant cell formation), passage number 3: passage 3; for percentage of cytopathic effect (giant cell formation), passage number 4: passage 4; for percentage of cytopathic effect (giant cell formation), passage number 5: passage 5; for percentage of cytopathic effect (giant cell formation), passage number 6: passage 6; for percentage of cytopathic effect (giant cell formation), passage number 7: passage 7
Protocol: HIV-1 infected CEM cells were subcultured every 4–5 days in the presence of sub-toxic concentrations (in the range of 10–20% of their respective IC50 value) of the compounds under test. At each sub-culture, cell-free supernatant (10–20 μl) was transferred to fresh 1 ml cell cultures. At regular intervals the cultures were inspected microscopically to assess the extent of any cytopathic effect (giant cell formation). As an alternative, it is also possible to perform an immunoassay to quantify viral p24 production.
The preliminary results for up to 7 passages are shown below in Table 3.

## O=C1NC2=NOCCC2=CN1[C@H]1C[C@H](O)[C@@H](CO)O1 [JA21, 6-(2-deoxy-β-D-ribofuranosyl)-3,4-dihydro-8H-pyrimido[4,5-c][1,2] oxazin-7-one, reference compound]
[1]; T-lymphocyte
  IC50: 690 ± 14 µM
HIV-1(IIIB); 400 μM
  percentage of cytopathic effect (giant cell formation), passage number 1: 100%
  percentage of cytopathic effect (giant cell formation), passage number 2: 100%
  percentage of cytopathic effect (giant cell formation), passage number 3: 25%
  percentage of cytopathic effect (giant cell formation), passage number 4: 50%
  percentage of cytopathic effect (giant cell formation), passage number 5: 37%
  percentage of cytopathic effect (giant cell formation), passage number 6: 12%
  percentage of cytopathic effect (giant cell formation), passage number 7: 6%

## O=C1NC2=NOCCC2=CN1[C@@H]1O[C@H](CO)[C@@H](O)[C@H]1O [JA22, 6-(β-D-ribofuranosyl)-3,4-dihydro-8H-pyrimido[4,5-c][1,2] oxazin-7-one]
[1]; T-lymphocyte
  IC50: 698 ± 11 µM
HIV-1(IIIB); 400 μM
  percentage of cytopathic effect (giant cell formation), passage number 1: 100%
  percentage of cytopathic effect (giant cell formation), passage number 2: 100%
  percentage of cytopathic effect (giant cell formation), passage number 3: 100%
  percentage of cytopathic effect (giant cell formation), passage number 4: 100%
  percentage of cytopathic effect (giant cell formation), passage number 5: 100%
  percentage of cytopathic effect (giant cell formation), passage number 6: 100%
  percentage of cytopathic effect (giant cell formation), passage number 7: 100%

## CNc1nc(N)nc2c1ncn2[C@@H]1O[C@H](CO)[C@@H](O)[C@H]1O [JA23, 2-amino-N^6-methyladenosine]
[1]; T-lymphocyte
  IC50: 622 ± 8 µM
HIV-1(IIIB); 400 μM
  percentage of cytopathic effect (giant cell formation), passage number 1: 100%
  percentage of cytopathic effect (giant cell formation), passage number 2: 100%
  percentage of cytopathic effect (giant cell formation), passage number 3: 12%
  percentage of cytopathic effect (giant cell formation), passage number 4: 25%
  percentage of cytopathic effect (giant cell formation), passage number 5: 3%
  percentage of cytopathic effect (giant cell formation), passage number 6: 0%
  percentage of cytopathic effect (giant cell formation), passage number 7: 0%
HIV-1(IIIB); HIV-1 infected CEM cells, sub-toxic concentrations, up to 7 passages
  antiviral activity (inhibition of HIV replication) in words: moderately effective

## NNc1nc(N)nc2c1ncn2[C@@H]1O[C@H](CO)[C@@H](O)[C@H]1O [JA24, N^6-amino-9-β-D-ribofuranosyl-2,6-diaminopurine]
[1]
  IC50: 62 ± 6 µM
HIV-1(IIIB); 4 μM
  percentage of cytopathic effect (giant cell formation), passage number 1: 100%
  percentage of cytopathic effect (giant cell formation), passage number 2: 100%
  percentage of cytopathic effect (giant cell formation), passage number 3: 19%
  percentage of cytopathic effect (giant cell formation), passage number 4: 100%
  percentage of cytopathic effect (giant cell formation), passage number 5: 100%
  percentage of cytopathic effect (giant cell formation), passage number 6: 100%
  percentage of cytopathic effect (giant cell formation), passage number 7: 12%
HIV-1(IIIB); 10 μM
  percentage of cytopathic effect (giant cell formation), passage number 1: 100%
  percentage of cytopathic effect (giant cell formation), passage number 2: 100%
  percentage of cytopathic effect (giant cell formation), passage number 3: 25%
  percentage of cytopathic effect (giant cell formation), passage number 4: 100%
  percentage of cytopathic effect (giant cell formation), passage number 5: 100%
  percentage of cytopathic effect (giant cell formation), passage number 6: 100%
  percentage of cytopathic effect (giant cell formation), passage number 7: 25%

## NNc1ncnc2c1ncn2[C@@H]1O[C@H](CO)[C@@H](O)[C@H]1O [JA25, N^6-aminoadenosine]
[1]; T-lymphocyte
  IC50: 12 ± 3 µM
HIV-1(IIIB); 0.8 μM
  percentage of cytopathic effect (giant cell formation), passage number 1: 100%
  percentage of cytopathic effect (giant cell formation), passage number 2: 100%
  percentage of cytopathic effect (giant cell formation), passage number 3: 87%
  percentage of cytopathic effect (giant cell formation), passage number 4: 100%
  percentage of cytopathic effect (giant cell formation), passage number 5: 100%
  percentage of cytopathic effect (giant cell formation), passage number 6: 100%
  percentage of cytopathic effect (giant cell formation), passage number 7: 100%
HIV-1(IIIB); 2 μM
  percentage of cytopathic effect (giant cell formation), passage number 1: 100%
  percentage of cytopathic effect (giant cell formation), passage number 2: 100%
  percentage of cytopathic effect (giant cell formation), passage number 3: 100%
  percentage of cytopathic effect (giant cell formation), passage number 4: 100%
  percentage of cytopathic effect (giant cell formation), passage number 5: 100%
  percentage of cytopathic effect (giant cell formation), passage number 6: 100%
  percentage of cytopathic effect (giant cell formation), passage number 7: 100%
